Measurements from patent publication EP4011354A1, “NEW COSMETICS SOLVENTS BASED ON TWO DIFFERENT COMPONENTS” (priority 2020, dated 2022).
In brackets after ≈: the same amount, converted by molar mass. Read-outs that look alike come from different tables or passages of the source. Each block holds one compound with its values, some of them ahead of it.

Legend:
[1] = Solubility of actives in water and in eutectic solvents; format: physicochemical; details: for solubility: water
From the text: Following is shown some examples for actives solubilization: • Dihydromyricetin • ∘ Solubility in Water 0.09% wt. • ∘ Solubility in Betaine:Urea 2:3 > 0.5% wt • ∘ Solubility in Betaine:Glucose 1:1 > 0.5% wt • ∘ Solubility in Betaine:Malic Acid 1:1 > 0.5% wt • ∘ Solubility in Proline:Sorbitol 1:1 > 0.5% wt • ∘ • Folic Acid • ∘ Solubility in Water 0.00016% wt. • ∘ Solubility in Betaine:Glycerol 1:3 > 1% wt • Thiamidol • ∘ Solubility in Water 0.017% wt. • ∘ Solubility in Betaine:Glycerol 1:3 > 2% wt

[2] = Liberation of actives and dermal penetration (pig-skin penetration test); details: 0,5% solution in betaine : malic acid (1:1 + 20% water; NADES)
Description: Actives liberation and dermal penetration behavior were evaluated for a 0,5% caffeine solution in an inventive eutectic solvent, betaine : malic acid (1:1 + 20% water; NADES).

[3] = In vivo sweat reduction test; details: Betaine-Glycerine (molar ratios 1:3), 10,5 wt.% calcium lactate, 37,5 wt.% water (figure 2)
[4] = Stability of 5 % vitamin C solutions in eutectic solvents versus water; format: physicochemical; details: 40 degrees, after 16 weeks

Solubility in Betaine:Glycerol 1:3 [1]: > 2 % wt
solubility ([1]; read-out: Solubility in Water): 170 µg/mL (≈ 611 µM)
Structure (SMILES): CC(C)C(=O)Nc1nc(-c2ccc(O)cc2O)cs1 [Thiamidol, Isobutylamido Thiazolyl Resorcinol]

Structure (SMILES): Cn1c(=O)c2c(ncn2C)n(C)c1=O [caffeine]
dermal absorption ([2]; compared to the water solution): lower
liberation over time ([2]; compared to the water solution (figure 4)): surprisingly lower

Solubility in Betaine:Glucose 1:1 [1]: > 0.5 % wt
Solubility in Betaine:Malic Acid 1:1 [1]: > 0.5 % wt
Solubility in Betaine:Urea 2:3 [1]: > 0.5 % wt
Solubility in Proline:Sorbitol 1:1 [1]: > 0.5 % wt
solubility [1]: 900 µg/mL (≈ 2810 µM)
Structure (SMILES): O=C1c2c(O)cc(O)cc2O[C@H](c2cc(O)c(O)c(O)c2)[C@H]1O [Dihydromyricetin]

Structure (SMILES): CC(O)C(=O)O (centres unmarked) [calcium lactate]
sweat reduction [3]: sweat reduction

Solubility in Betaine:Glycerol 1:3 [1]: > 1 % wt
solubility ([1]; read-out: Solubility in Water): 1.6 µg/mL (≈ 3.62 µM)
Structure (SMILES): Nc1nc2ncc(CNc3ccc(C(=O)N[C@@H](CCC(=O)O)C(=O)O)cc3)nc2c(=O)[nH]1 [Folic Acid]

remaining at 2688 h ([4]; in the eutectic solvents (table 1, B-F), read-out: active still intact): ≤ 82%
remaining at 2688 h ([4]; water, aqueous solution, read-out: initial vitamin C still measurable): 10%
Structure (SMILES): O=C1O[C@H]([C@@H](O)CO)C(O)=C1O [vitamin C, ascorbic acid]
